Laboratory results taken from patent publication US20260062412A1, “NITROGEN-CONTAINING HETEROCYCLIC COMPOUND HAVING MYT1 INHIBITORY ACTIVITY” (CHUGAI SEIYAKU KABUSHIKI KAISHA, priority 2023, published 2026).

Molecular target: MYT1 protein (Homo sapiens (Human), UniProt Q99640)
Test: Test for binding to ATP binding site of MYT1 (Kinase Tracer 178 / Eu-Anti-GST antibody TR-FRET)
Details: ATP binding site of MYT1, 30 minutes at room temperature

Sequence of MYT1 protein (Q99640 whole entry): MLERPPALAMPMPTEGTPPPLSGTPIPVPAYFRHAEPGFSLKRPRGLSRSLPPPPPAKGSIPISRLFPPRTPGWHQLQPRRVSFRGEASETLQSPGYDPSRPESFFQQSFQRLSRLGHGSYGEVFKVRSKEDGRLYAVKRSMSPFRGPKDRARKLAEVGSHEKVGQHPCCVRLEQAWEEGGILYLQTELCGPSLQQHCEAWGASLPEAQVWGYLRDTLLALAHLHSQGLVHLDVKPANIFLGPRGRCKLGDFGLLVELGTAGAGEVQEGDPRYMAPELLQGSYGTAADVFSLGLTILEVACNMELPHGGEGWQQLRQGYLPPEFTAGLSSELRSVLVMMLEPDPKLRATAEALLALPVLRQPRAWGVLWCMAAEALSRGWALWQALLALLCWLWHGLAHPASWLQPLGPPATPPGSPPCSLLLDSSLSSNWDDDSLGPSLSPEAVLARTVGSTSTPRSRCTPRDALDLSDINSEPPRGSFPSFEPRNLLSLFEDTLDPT

Row | SMILES | IC50 [nM]
1 | Cc1cc2c(-c3ccc(Cl)c4[nH]ncc34)c(N)c(=O)[nH]c2c2cccnc12 [Compound C152, 3-Amino-4-(7-chloro-1H-indazol-4-yl)-6-methyl-1H-1,7-phenanthrolin-2-one] | 4
2 | Cc1nc2[nH]c(=O)c(N)c(-c3ccc(Cl)c4[nH]ncc34)c2cc1O[C@H]1C[C@H](F)C1 [Compound A15, 3-Amino-4-(7-chloro-1H-indazol-4-yl)-6-((1r,3r)-3-fluorocyclobutyl)oxy-7-methyl-1H-1,8-naphthyridin-2-one] | 13
3 | Cn1cnc2c3[nH]c(=O)c(N)c(-c4ccc(F)c5[nH]ncc45)c3cc(Br)c21 [Compound M1, 7-Amino-4-bromo-6-(7-fluoro-1H-indazol-4-yl)-3-methyl-9H-imidazo[4,5-h]quinolin-8-one] | 10
4 | CS(=O)(=O)Nc1cccc(-c2c(N)c(=O)[nH]c3ccc(Cl)cc23)c1 [Compound A46, N-[3-(3-amino-6-chloro-2-oxo-1H-quinolin-4-yl)phenyl]methanesulfonamide] | 5900
5 | Nc1c(-c2cc(F)c(F)c3[nH]ncc23)c2cc(OCC(F)F)c3ncccc3c2[nH]c1=O [Compound C68, 3-Amino-6-(2,2-difluoroethoxy)-4-(6,7-difluoro-1H-indazol-4-yl)-1H-1,7-phenanthrolin-2-one] | 1.4
6 | Nc1c(-c2ccc(F)c3[nH]ncc23)c2cc(OCCOC(F)(F)F)c3ncccc3c2[nH]c1=O [Compound C43, 3-Amino-4-(7-fluoro-1H-indazol-4-yl)-6-[2-(trifluoromethoxy)ethoxy]-1H-1,7-phenanthrolin-2-one] | 19
7 | Nc1c(-c2ccc(F)c3[nH]ncc23)c2cc(C3CNC3)c3cccnc3c2[nH]c1=O [Compound D28, 3-Amino-6-(azetidin-3-yl)-4-(7-fluoro-1H-indazol-4-yl)-1H-1,10-phenanthrolin-2-one] | 1.7
8 | Nc1c(-c2ccc(Cl)c3[nH]ncc23)c2cc(C3CCC3)c3ncccc3c2[nH]c1=O [Compound C147, 3-Amino-4-(7-chloro-1H-indazol-4-yl)-6-cyclobutyl-1H-1,7-phenanthrolin-2-one] | 5.2
9 | Nc1c(-c2cc(F)c(F)c3[nH]ncc23)c2cc(C3CC3)c3ncccc3c2[nH]c1=O [Compound C191, 3-Amino-6-cyclopropyl-4-(6,7-difluoro-1H-indazol-4-yl)-1H-1,7-phenanthrolin-2-one] | 6
10 | Nc1c(-c2ccc(Cl)c3[nH]ncc23)c2cc(Br)c3ncccc3c2[nH]c1=O [Compound C73, 3-Amino-6-bromo-4-(7-chloro-1H-indazol-4-yl)-1H-1,7-phenanthrolin-2-one] | < 14
11 | Cn1ccc(-c2c(N)c(=O)[nH]c3ccc(Cl)cc23)cc1=O [Compound A52, 3-Amino-6-chloro-4-(1-methyl-2-oxopyridin-4-yl)-1H-quinolin-2-one] | 4400
12 | Nc1c(-c2ccc(F)c3[nH]ncc23)c2cc(N3CC(N4CC(F)(F)C4)C3)c3cccnc3c2[nH]c1=O [Compound D11, 3-Amino-6-[3-(3,3-difluoroazetidin-1-yl)azetidin-1-yl]-4-(7-fluoro-1H-indazol-4-yl)-1H-1,10-phenanthrolin-2-one] | 20
13 | Cc1c(C2CC2)c2ncccc2c2[nH]c(=O)c(N)c(-c3cc(F)c(F)c4[nH]ncc34)c12 [Compound C217, 3-Amino-6-cyclopropyl-4-(6,7-difluoro-1H-indazol-4-yl)-5-methyl-1H-1,7-phenanthrolin-2-one] | 1.8
14 | CC(C)N1CCC(c2ccc3[nH]c(=O)c(N)c(-c4ccc(Cl)c5[nH]ncc45)c3c2)CC1 [Compound A34, 3-Amino-4-(7-chloro-1H-indazol-4-yl)-6-(1-propan-2-ylpiperidin-4-yl)-1H-quinolin-2-one] | 26
15 | CC(C)Oc1cc2c(-c3ccc(Cl)c4[nH]ncc34)c(N)c(=O)[nH]c2cc1Cl [Compound A8, 3-Amino-7-chloro-4-(7-chloro-1H-indazol-4-yl)-6-propan-2-yloxy-1H-quinolin-2-one] | 23
16 | Nc1c(-c2ccc(F)c3[nH]ncc23)c2cc(Br)c3ncsc3c2[nH]c1=O [Compound K1, 7-Amino-4-bromo-6-(7-fluoro-1H-indazol-4-yl)-9H-[1,3]thiazolo[4,5-h]quinolin-8-one] | 1.7
17 | Nc1c(-c2ccc(Cl)c3[nH]ncc23)c2cc(Cl)cc(C3CC3)c2[nH]c1=O [Compound A24, 3-Amino-6-chloro-4-(7-chloro-1H-indazol-4-yl)-8-cyclopropyl-1H-quinolin-2-one] | 110
18 | Nc1c(-c2ccc(F)c3[nH]ncc23)c2cc(N3CCN4CCOC[C@@H]4C3)c3cccnc3c2[nH]c1=O [Compound D13, 6-[(9aS)-3,4,6,7,9,9a-hexahydro-1H-pyrazino[2,1-c][1,4]oxazin-8-yl]-3-amino-4-(7-fluoro-1H-indazol-4-yl)-1H-1,10-phenanthrolin-2-one] | 25
19 | Nc1c(-c2ccc(F)c3[nH]ncc23)c2ccc3cccnc3c2[nH]c1=O [Compound D4, 3-Amino-4-(7-fluoro-1H-indazol-4-yl)-1H-1,10-phenanthrolin-2-one] | 15
20 | CN1CCN(c2cc3c(-c4ccc(F)c5[nH]ncc45)c(N)c(=O)[nH]c3c3cccnc23)CC1 [Compound C114, 3-Amino-4-(7-fluoro-1H-indazol-4-yl)-6-(4-methylpiperazin-1-yl)-1H-1,7-phenanthrolin-2-one] | 2
21 | Nc1c(-c2cccc3[nH]ncc23)c2ccccc2oc1=O [Compound E1, 3-Amino-4-(1H-indazol-4-yl) chromen-2-one] | 1100
22 | N#CC1(COc2cc3c(-c4ccc(F)c5[nH]ncc45)c(N)c(=O)[nH]c3c3cccnc23)CCC1 [Compound C55, 1-[[3-Amino-4-(7-fluoro-1H-indazol-4-yl)-2-oxo-1H-1,7-phenanthrolin-6-yl]oxymethyl]cyclobutane-1-carbonitrile] | 0.92
23 | C#Cc1cc(Cl)cc2c(-c3ccc(Cl)c4[nH]ncc34)c(N)c(=O)[nH]c12 [Compound A18, 3-Amino-6-chloro-4-(7-chloro-1H-indazol-4-yl)-8-ethynyl-1H-quinolin-2-one] | 87
24 | CC(C)N1CCC(c2cc3c(-c4ccc(F)c5[nH]ncc45)c(N)c(=O)[nH]c3c3ncccc23)CC1 [Compound D23, 3-Amino-4-(7-fluoro-1H-indazol-4-yl)-6-(1-propan-2-ylpiperidin-4-yl)-1H-1,10-phenanthrolin-2-one] | 6.4
25 | C=C(C)c1cc2c(-c3ccc(F)c4[nH]ncc34)c(N)c(=O)[nH]c2c2cccnc12 [Compound C103, 3-Amino-4-(7-fluoro-1H-indazol-4-yl)-6-prop-1-en-2-yl-1H-1,7-phenanthrolin-2-one] | 4.3
26 | Nc1c(-c2ccc(F)c3[nH]ncc23)c2cc(N3CCCCC3)c3ncccc3c2[nH]c1=O [Compound C125, 3-Amino-4-(7-fluoro-1H-indazol-4-yl)-6-piperidin-1-yl-1H-1,7-phenanthrolin-2-one] | 5.9
27 | Nc1c(-c2ccc(F)c3[nH]ncc23)c2cc(C3CC(F)(F)C3)c3ncccc3c2[nH]c1=O [Compound C164, 3-Amino-6-(3,3-difluorocyclobutyl)-4-(7-fluoro-1H-indazol-4-yl)-1H-1,7-phenanthrolin-2-one] | 8.6
28 | Nc1c(-c2ccc(Cl)c3[nH]ncc23)c2cc(Br)c3ccccc3c2[nH]c1=O [Compound B36, 3-Amino-6-bromo-4-(7-chloro-1H-indazol-4-yl)-1H-benzo[h]quinolin-2-one] | 14
